Measurements as given in patent publication US20130225591A1, “IMIDOTHIAZOLE KINASE INHIBITORS” (priority 2009, published 2013).

The molecules below were run against T1, CDK5-p25 kinase (Homo sapiens, UniProt Q00535) (assay: CDK5-p25 kinase enzymatic assay). Conditions: 50 nM-99 nM; 5 uM ATP, 0.3 nM CDK5-p25; read-out: IC50 potency, CDK5-p25 kinase enzymatic assay, 50 nM-99 nM.
T1 construct: purchased Invitrogen PV4677
Assay type: biochemical
Procedure: CDK5-p25 kinase (Invitrogen PV4677) enzymatic activity was measured using electrophoretic separation and fluorescent detection to monitor phosphorylation of a fluorescently labeled histone H1-derived peptide substrate, FL29 (5-FAM-GGGPATPKKAKKL-CONH2, Caliper #760429)
First, 0.25 uL of serially diluted compound in DMSO at 100× concentration was transferred into each well of a 384-well polystyrene assay plate. To this was added 15 uL of a 1.67× enzyme solution (500 pM enzyme, 1 mM DTT (Sigma D9779), 1× reconstitution buffer with protease inhibitor (Caliper #700329 proprietary formulation)), followed by centrifugation for 1 min at 1000 rpm, and incubation for 5-15 min at room temperature to allow binding of compound to enzyme. To initiate the reaction, 10 uL of substrate/ATP mix (245 mM Hepes pH 7.5, 0.003% Brij 35, 0.004% Tween, 12.75 uM ATP, 3.75 uM FL29 peptide) were added to each well, followed by centrifugation at 1000 rpm for 1 min. The reaction was then incubated at room temperature for 30 min. Final assay conditions were: 0.3 nM CDK5-p25, 1.5 uM peptide, 5 uM ATP, 0.6 mM DTT, 1% DMSO, 98 mM HEPES pH 7.5.
After incubation, reactions were quenched by the addition of 45 uL Caliper termination solution (Caliper proprietary formula), followed by centrifugation at 1000 rpm for 1 min. Extent of reaction (percentage conversion of substrate to phosphorylated product) was then measured using the Caliper EZ II reader. Dose-response curves were created by plotting the inhibition of enzyme activity (normalized relative to vehicle treated and no ATP control reactions) as a function of the log of compound concentration. The curve was analyzed using a four parameter logistical fit to calculate IC50 values.

T1 sequence (Q00535 whole entry): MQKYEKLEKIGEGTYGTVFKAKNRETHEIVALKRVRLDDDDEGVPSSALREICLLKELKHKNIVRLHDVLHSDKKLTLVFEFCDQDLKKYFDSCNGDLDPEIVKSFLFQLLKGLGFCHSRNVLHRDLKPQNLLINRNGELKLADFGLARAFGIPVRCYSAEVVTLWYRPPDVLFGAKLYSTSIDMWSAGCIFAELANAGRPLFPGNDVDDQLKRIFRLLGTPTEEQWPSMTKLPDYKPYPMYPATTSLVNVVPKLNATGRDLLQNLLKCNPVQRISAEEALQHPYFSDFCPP
T1 sequence (Q15078 99-307 partner limits assumed): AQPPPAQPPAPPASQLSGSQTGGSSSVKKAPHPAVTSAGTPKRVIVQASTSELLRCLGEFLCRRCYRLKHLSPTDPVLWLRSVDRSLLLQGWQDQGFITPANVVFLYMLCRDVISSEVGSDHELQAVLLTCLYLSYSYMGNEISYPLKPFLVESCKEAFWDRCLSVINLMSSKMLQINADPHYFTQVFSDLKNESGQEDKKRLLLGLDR

Row | SMILES | IC50
1 | Nc1ncc(-c2ccc(CC(=O)Nc3ncn4c(C(F)(F)F)csc34)cc2)cn1 [Example 35, 2-[4-(2-aminopyrimidin-5-yl)phenyl]-N-[3-(trifluoromethyl)imidazo[5,1-b][1,3]thiazol-7-yl]acetamide] | 50 to 99 nM
2 | C[C@H](C(=O)Nc1ncn2c(C(F)(F)F)csc12)c1ccc2ccccc2c1 [Example 36, (2S)-2-(2-naphthyl)-N-[3-(trifluoromethyl)imidazo[5,1-b][1,3]thiazol-7-yl]propanamide] | 50 to 99 nM
3 | CC(C(=O)Nc1ncn2c(C(F)(F)F)csc12)c1ccc2ncccc2c1 (stereo not shown) [Example 39, 2-quinolin-6-yl-N-[3-(trifluoromethyl)imidazo[5,1-b][1,3]thiazol-7-yl]propanamide] | 50 to 99 nM
4 | O=C(Cc1ccc2ccccc2c1)Nc1ncn2c(C(F)F)csc12 [Example 41, N-[3-(difluoromethyl)imidazo[5,1-b][1,3]thiazol-7-yl]-2-(2-naphthyl) acetamide] | 50 to 99 nM
5 | O=C(Nc1ncn2c(C(F)(F)F)csc12)C(Cl)c1ccc2ccccc2c1 (stereo not shown) [Example 42, 2-chloro-2-(2-naphthyl)-N-[3-(trifluoromethyl)imidazo[5,1-b][1,3]thiazol-7-yl]acetamide] | 50 to 99 nM
6 | Nc1cc(Nc2cccc(CC(=O)Nc3ncn4c(C(F)(F)F)csc34)c2)ccn1 [Example 49, 2-{3-[(2-aminopyridin-4-yl)amino]phenyl}-N-[3-(trifluoromethyl)imidazo[5,1-b][1,3]thiazol-7-yl]acetamide] | 50 to 99 nM
7 | O=C(Cc1c[nH]c2ccccc12)Nc1ncn2c(C(F)(F)F)csc12 [Example 57, 2-(1H-indol-3-yl)-N-[3-(trifluoromethyl)imidazo[5,1-b][1,3]thiazol-7-yl]acetamide] | 50 to 99 nM
8 | O=C(Cc1cccc(NC(=O)c2cccnc2)c1)Nc1ncn2c(C(F)(F)F)csc12 [Example 59, N-[3-(2-oxo-2-{[3-(trifluoromethyl)imidazo[5,1-b][1,3]thiazol-7-yl]amino}ethyl)phenyl] nicotinamide] | 50 to 99 nM
9 | O=C(Cc1cccc(NC(=O)c2ccncc2)c1)Nc1ncn2c(C(F)(F)F)csc12 [Example 60, N-[3-(2-oxo-2-{[3-(trifluoromethyl)imidazo[5,1-b][1,3]thiazol-7-yl]amino}ethyl)phenyl] isonicotinamide] | 50 to 99 nM
10 | O=C(Cc1ccc(NC(=O)c2cccnc2)cc1)Nc1ncn2c(C(F)(F)F)csc12 [Example 61, N-[4-(2-oxo-2-{[3-(trifluoromethyl)imidazo[5,1-b][1,3]thiazol-7-yl]amino}ethyl)phenyl] nicotinamide] | 50 to 99 nM
11 | Nc1ccccc1-c1ccc(CC(=O)Nc2ncn3c(C(F)(F)F)csc23)cn1 [Example 63, 2-[6-(2-aminophenyl)pyridin-3-yl]-N-[3-(trifluoromethyl)imidazo[5,1-b][1,3]thiazol-7-yl]acetamide] | 50 to 99 nM

Same assay, conditions: 500 nM-3 μM; 5 uM ATP, 0.3 nM CDK5-p25; read-out: IC50 potency, CDK5-p25 kinase enzymatic assay, 500 nM-3 μM

Row | SMILES | IC50
12 | O=C(Cc1ccc2ccccc2c1)Nc1ncn2c(C3CC3)csc12 [Example 38, N-(3-cyclopropyl-imidazo[5,1-b][1,3]thiazol-7-yl)-2-(2-naphthyl) acetamide] | 500 to 3000 nM
13 | C[C@@H](C(=O)Nc1ncn2c(C(F)(F)F)csc12)c1ccc2ncccc2c1 [Example 47, (2R)-2-quinolin-6-yl-N-[3-(trifluoromethyl)imidazo[5,1-b][1,3]thiazol-7-yl]propanamide] | 500 to 3000 nM
14 | Cc1csc2c(NC(=O)Cc3ccc4ccccc4c3)ncn12 [Example 65, N-(3-methylimidazo [5,1-b][1,3]thiazol-7-yl)-2-(2-naphthyl) acetamide] | 500 to 3000 nM
15 | O=C(Nc1ncn2c(C(F)(F)F)csc12)C(CO)c1ccc2ccccc2c1 (stereo not shown) [Example 67, 3-hydroxy-2-(2-naphthyl)-N-[3-(trifluoromethyl)imidazo[5,1-b][1,3]thiazol-7-yl]propanamide] | 500 to 3000 nM

Same assay, conditions: 5 uM ATP, 0.3 nM CDK5-p25; read-out: IC50 potency, CDK5-p25 kinase enzymatic assay, 100 nM-499 nM

Row | SMILES | IC50
16 | CC(C(=O)Nc1ncn2c(C(F)(F)F)csc12)c1ccc2ccccc2c1 (stereo not shown) [Example 34, 2-(2-naphthyl)-N-[3-(trifluoromethyl)imidazo[5,1-b][1,3]thiazol-7-yl]propanamide] | 100 to 499 nM
17 | O=C(Nc1ncn2c(C(F)(F)F)csc12)C(O)c1ccc2ccccc2c1 (stereo not shown) [Example 40, 2-hydroxy-2-(2-naphthyl)-N-[3-(trifluoromethyl)imidazo[5,1-b][1,3]thiazol-7-yl]acetamide] | 100 to 499 nM
18 | Cc1cnc(-c2ccc(CC(=O)Nc3ncn4c(C(F)(F)F)csc34)cc2)cn1 [Example 51, 2-[4-(5-methylpyrazin-2-yl)phenyl]-N-[3-(trifluoromethyl)imidazo[5,1-b][1,3]thiazol-7-yl]acetamide] | 100 to 499 nM
19 | CS(=O)(=O)c1ccc(CC(=O)Nc2ncn3c(C(F)(F)F)csc23)cc1 [Example 58, 2-[4-(methylsulfonyl)phenyl]-N-[3-(trifluoromethyl)imidazo[5,1-b][1,3]thiazol-7-yl]acetamide] | 100 to 499 nM
20 | O=C(CN1Cc2ccccc2C1)Nc1ncn2c(C(F)(F)F)csc12 [Example 68, 2-(1,3-dihydro-2H-isoindol-2-yl)-N-[3-(trifluoromethyl)imidazo[5,1-b][1,3]thiazol-7-yl]acetamide] | 100 to 499 nM

Same assay, conditions: '<50 nM'; 5 uM ATP, 0.3 nM CDK5-p25; read-out: IC50 potency, CDK5-p25 kinase enzymatic assay, <50 nM

Row | SMILES | IC50
21 | O=C(Nc1ncn2c(C(F)(F)F)csc12)C(F)c1ccc2ccccc2c1 (stereo not shown) [Example 33, 2-fluoro-2-(2-naphthyl)-N-[3-(trifluoromethyl)imidazo[5,1-b][1,3]thiazol-7-yl]acetamide] | < 50 nM
22 | O=C(Cc1ccc2[nH]ncc2c1)Nc1ncn2c(C(F)(F)F)csc12 [Example 37, 2-(1H-indazol-5-yl)-N-[3-(trifluoromethyl)imidazo[5,1-b][1,3]thiazol-7-yl]acetamide] | < 50 nM
23 | O=C(Cc1ccc(Cl)cc1)Nc1ncn2c(C(F)(F)F)csc12 [Example 43, 2-(4-chlorophenyl)-N-[3-(trifluoromethyl)imidazo[5,1-b][1,3]thiazol-7-yl]acetamide] | < 50 nM
24 | C[C@H](C(=O)Nc1ncn2c(C(F)(F)F)csc12)c1ccc2ncccc2c1 [Example 46, (2S)-2-quinolin-6-yl-N-[3-(trifluoromethyl)imidazo[5,1-b][1,3]thiazol-7-yl]propanamide] | < 50 nM
25 | O=C(Cc1cccc(-c2cc[nH]n2)c1)Nc1ncn2c(C(F)(F)F)csc12 [Example 48, 2-[3-(1H-pyrazol-3-yl)phenyl]-N-[3-(trifluoromethyl)imidazo[5,1-b][1,3]thiazol-7-yl]acetamide] | < 50 nM
26 | O=C(Cc1ccc(-c2ccccc2)nc1)Nc1ncn2c(C(F)(F)F)csc12 [Example 50, 2-(6-phenylpyridin-3-yl)-N-[3-(trifluoromethyl)imidazo[5,1-b][1,3]thiazol-7-yl]acetamide] | < 50 nM
27 | O=C(Cc1cccc(-c2cccnc2)c1)Nc1ncn2c(C(F)(F)F)csc12 [Example 52, 2-(3-pyridin-3-ylphenyl)-N-[3-(trifluoromethyl)imidazo[5,1-b][1,3]thiazol-7-yl]acetamide] | < 50 nM
28 | O=C(Cc1ccc(-c2ccsc2)cc1)Nc1ncn2c(C(F)(F)F)csc12 [Example 53, 2-[4-(3-thienyl)phenyl]-N-[3-(trifluoromethyl)imidazo[5,1-b][1,3]thiazol-7-yl]acetamide] | < 50 nM
29 | O=C(Cc1ccc(-c2ccccn2)cc1)Nc1ncn2c(C(F)(F)F)csc12 [Example 54, 2-(4-pyridin-2-ylphenyl)-N-[3-(trifluoromethyl)imidazo[5,1-b][1,3]thiazol-7-yl]acetamide] | < 50 nM
30 | Cc1ccc(-c2ccc(CC(=O)Nc3ncn4c(C(F)(F)F)csc34)cc2)cn1 [Example 55, 2-[4-(6-methylpyridin-3-yl)phenyl]-N-[3-(trifluoromethyl)imidazo[5,1-b][1,3]thiazol-7-yl]acetamide] | < 50 nM
31 | O=C(Cc1cccc(-c2ccccn2)c1)Nc1ncn2c(C(F)(F)F)csc12 [Example 56, 2-(3-pyridin-2-ylphenyl)-N-[3-(trifluoromethyl)imidazo[5,1-b][1,3]thiazol-7-yl]acetamide] | < 50 nM
32 | O=C(Cc1ccc(NC(=O)c2ccncc2)cc1)Nc1ncn2c(C(F)(F)F)csc12 [Example 62, N-[4-(2-oxo-2-{[3-(trifluoromethyl)imidazo[5,1-b][1,3]thiazol-7-yl]amino}ethyl)phenyl] isonicotinamide] | < 50 nM
33 | O=C(Cc1cccc(-c2ccncc2)c1)Nc1ncn2c(C(F)(F)F)csc12 [Example 64, 2-(3-pyridin-4-ylphenyl)-N-[3-(trifluoromethyl)imidazo[5,1-b][1,3]thiazol-7-yl]acetamide] | < 50 nM
34 | O=C(Cc1cccc2ccccc12)Nc1ncn2c(C(F)(F)F)csc12 [Example 66, 2-(1-naphthyl)-N-[3-(trifluoromethyl)imidazo[5,1-b][1,3]thiazol-7-yl]acetamide] | < 50 nM
